# Assay results: ChEMBL document CHEMBL1124342, “N6-bicycloalkyladenosines with unusually high potency and selectivity for the adenosine A1 receptor” (J Med Chem, 1989)
# pKi: −log10 of the molar value.
# Molecular target: T1, Adenosine receptor A1 (Rattus norvegicus, UniProt P25099)
# T1 sequence (P25099 whole entry): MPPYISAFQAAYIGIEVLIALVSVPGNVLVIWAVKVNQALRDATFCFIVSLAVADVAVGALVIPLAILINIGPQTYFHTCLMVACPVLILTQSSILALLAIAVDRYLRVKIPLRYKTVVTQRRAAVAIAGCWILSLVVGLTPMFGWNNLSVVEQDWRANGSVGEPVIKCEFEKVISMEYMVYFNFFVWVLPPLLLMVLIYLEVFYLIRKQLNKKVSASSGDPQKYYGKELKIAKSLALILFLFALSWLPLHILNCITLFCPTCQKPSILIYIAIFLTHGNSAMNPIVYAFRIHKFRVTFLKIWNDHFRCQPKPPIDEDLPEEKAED
# Test: Binding affinity against Adenosine A1 receptor using [3H]CHA in rat brain membranes
# Type: cell membranes
row,pKi,SMILES
1,9.14,O[C@@H]1[C@H](O)[C@@H](CCl)O[C@H]1n1cnc2c(NC3CCCC3)ncnc21
2,9.38,OC[C@H]1O[C@@H](n2cnc3c(NC4CC5CCC4C5)ncnc32)[C@H](O)[C@@H]1O (some centres undefined)
3,9.52,"OC[C@H]1O[C@@H](n2cnc3c(N[C@H]4CC5CCC4C5)ncnc32)[C@H](O)[C@@H]1O (single isomer, unassigned)"
4,9.04,OC[C@H]1O[C@@H](n2cnc3c(NC4C[C@H]5CC[C@@H]4C5)ncnc32)[C@H](O)[C@@H]1O (some centres undefined)
5,8.78,OC[C@H]1O[C@@H](n2cnc3c(N[C@@H]4C[C@@H]5CC[C@H]4C5)ncnc32)[C@H](O)[C@@H]1O

# Molecular target: Adenosine A2 receptor (Rattus norvegicus, UniProt P29276+P30543)
# Test: Binding affinity against Adenosine A2 receptor using [3H]NECA with 50 nM CPA in rat striatal brain membranes
# Type: cell membranes, Membrane
row,Ki [nM],SMILES
1,3900,O[C@@H]1[C@H](O)[C@@H](CCl)O[C@H]1n1cnc2c(N[C@H]3C[C@H]4CCC3C4)ncnc21
2,1870,O[C@@H]1[C@H](O)[C@@H](CCl)O[C@H]1n1cnc2c(NC3CCCC3)ncnc21
3,2100,O[C@@H]1[C@H](O)[C@@H](CCl)O[C@H]1n1cnc2c(NC3C[C@H]4CCC3C4)ncnc21 (some centres undefined)
4,3000,O[C@@H]1[C@H](O)[C@@H](CCl)O[C@H]1n1cnc2c(N[C@@H]3C[C@@H]4CC[C@H]3C4)ncnc21
